Data taken from patent US7635423B2, “Redox potential mediated, heterogeneous, carbon nanotube biosensing” (E. I. du Pont de Nemours and Company, priority 2004, dated 2009).
Several values for one entry are separate records, joined by “and”; a condition that tells them apart may be missing. Equal entries are not always repeated. Structures can show the parent of a compound that is named as a salt. Where two headings read alike, the source gives them in different places.

What was measured:
[1] = tested on: Trametes versicolor laccase; assay: Laccase inhibitor kinetics: rate of ABTS^−2 oxidation at varied inhibitor and substrate concentrations; assay type: biochemical
Experimental: High potential quinones/quinols were screened to identify those with characteristics that would be suitable for use as an inhibitor of laccase, to be used in an activity switch.
Compounds were evaluated by varying the concentrations of inhibitor and substrate (ABTS^−2) and measuring under each condition the rate of ABTS^−2 oxidation. […] Tetrachloro-o-quinol and tetrafluoro-o-quinol, shown in Diagram I, had Kds, of 7-9 μM and 2.5 μM, respectively, as determined from the data in FIG. 20.
[…]

[2] = tested on: Trametes versicolor laccase; assay: Laccase assay: ABTS^−2 oxidation followed at 436 nm, with and without NaF; assay type: biochemical; details: 1 mM NaF; 5 mM ABTS^−2; 50 mM Glycine pH 3.0
Experimental: A stock solution of Trametes versicolor laccase (4.8 mg/ml) was diluted 200,000-fold into 50 mM Glycine, pH 3.0. At time zero, ABTS^−2 (2,2′-azino-bis(3-ethylbenzthiazoline-6-sulfonate) diammonium salt was added at a concentration of 5 mM and the oxidation of ABTS^−2 was followed by monitoring the absorbance change at 436 nm. Shown in FIG. 12 is the result of the laccase assay in the presence and absence of 1 mM NaF. The latter inhibits the laccase activity by 95%.

[3] = tested on: laccase (Type I copper center); assay: Laccase 600 nm absorbance peak on inhibitor binding; set-up: species or system Trametes versicolor
Text: This conclusion was strengthened by the observation that the binding of tetrachloro-o-quinol to laccase caused a decrease in the amplitude of the laccase 600 nm absorbance peak, dominated by a charge-transfer band involving the Type I copper center and its cysteinyl ligand.

[4] = tested on: surface-attached oligo 29 (complementary) vs oligo 28 (non-complementary); assay: Detection of DNA hybridization by CNT device (current vs time at Vg=−0.4 V); details: 30 μM ABTS^−2, 50 mM glycine pH 3, adduct 50 nM (in DNA)
Experimental: Detection of DNA hybridization in a CNT device was assayed as diagramed in FIG. 17. […] In the diagram, two electrodes are indicated, one source electrode (10) and one drain electrode (20), where the electrodes are connected by an electrically conducting path comprising at least one semiconducting carbon nanotube (30). A third electrode (40) generates an electric field to gate the conductance of the CNT. Nucleic acid molecules, functioning as capture moieties (220) are attached to a surface (60) through a silyl butyraldehyde attachment group (230). An oligonucleotide (260) that hybridizes to the capture moiety nucleic acid is attached to the enzyme laccase (270). Laccase oxidizes ABTS^−2 (2,2′ azino-di-(3-ethylbenzthiazoline-sulfonate) at the expense of O2, transferring 4 electrons from 4ABTS^−2 to O2, producing 4ABTS^−1 and H2O. Thus the redox potential of the redox effector (ABTS^−2/ABTS^−1) in solution becomes more positive. This change in effector redox potential oxidizes the CNTs, increasing their p-type conductance. […]
Electron transport through the CNT was first recorded in the 50 mM glycine pH=3 buffer and immediately after flowing 30 μM ABTS^−2 in the same buffer into the flow cell. […]

[5] = tested on: surface-bound oligonucleotide 51; assay: Fluorescence signals following hybridization to surface bound oligo; assay type: binding; details: camera exposure 30 s
Experimental: To increase the specificity of hybridization, the chips were incubated with Sigma #6429 1× Blocking buffer for 1 h. Excess blocking solution was removed by rinsing with 50 mM Na Acetate pH 5.0 plus 100 mM Na2SO4. Surface-bound oligonucleotide 51 was hybridized separately to: • 1) Oligonucleotide 52 (SEQ ID NO:4), acting as a target sequence, hybridized to oligonucleotide 54 (SEQ ID NO:5). Oligonucleotide 54 has 18 nucleotides complementary to the 3′ end of the target oligonucleotide 52 and a fluorescent tag, Alexa Fluor 546, at its 5′ end. Oligonucleotide 52 has at its 5′ end 18 nucleotides complementary to oligonucleotide 51. • 2) Oligonucleotide 52 (SEQ ID NO:4), acting as a target sequence, hybridized to oligonucleotide 50 (SEQ ID NO:5). Oligonucleotide 50 has the same nucleotide sequence as oligonucleotide 54 and was attached to laccase enzyme (lac/oligo 50) as described below in Example 13, This oligonucleotide also has a Cy3 tag at its 3′ end. All oligonucleotides were purchased from Integrated DNA Technologies, Inc. (Coralville, Iowa). Oligos 52 and 54 in (1), and oligos 52 and 50 in (2) were prehybridized in 50 mM Na Acetate pH 5.0 plus 100 mM Na2SO4 for 10 min at 50° C., then allowed to cool to room temperature before adding to the chip with oligo 51.
Hybridizations of the surface bound probe, oligo 51, with the samples listed above were carried out in 50 mM Na Acetate pH 5.0 plus 100 mM Na2SO4. Unbound oligonucleotides were removed by rinsing with Washing Buffer A (Arraylt, Telechem International Inc., Sunnyvale, Calif.). Where a laccase/DNA adduct was used for hybridization, 50 mM Na Acetate pH 5.0 plus 100 mM Na2SO4 was used for the wash. After washing, the chip was covered with a cover slip and observed using a fluorescence microscope. The extent of hybridization was evaluated by measuring fluorescence emission from fluorescent-tagged oligonucleotides attached or not to laccase.
Results of fluorescent signals following hybridizations in 1) and 2) above, using different concentrations of oligos as listed, are given in Table 1. […]

[6] = plots of reciprocal rate vs inhibitor concentration, FIG. 20, read-out: Kd (dissociation constant of the inhibitor, -Ki intersection)

CCn1c(=NN=c2sc3cc(S(=O)(=O)O)ccc3n2CC)sc2cc(S(=O)(=O)O)ccc21 [ABTS^−2, 2,2′-azino-bis(3-ethylbenz-thiazoline-6-sulfonate) diammonium salt, reference compound]
Kd ([1]; substrate of laccase, read-out: dissociation constant, Kd of the laccase substrate): 120 to 240 µM

[F-].[Na+] [NaF]
inhibition of laccase activity [2]: 95%

Oc1c(O)c(Cl)c(Cl)c(Cl)c1Cl [Tetrachloro-o-quinol]
activity as an inhibitor of laccase [1]: effective inhibitor | Kd [1, 6]: 7 to 9 µM | amplitude of the laccase 600 nm absorbance peak on binding [3]: decrease

Oc1c(Cl)c(Cl)c(O)c(Cl)c1Cl [tetrachloro-p-quinol]
activity as an inhibitor of laccase [1]: inactive

Oc1c(O)c(F)c(F)c(F)c1F [tetrafluoro-o-quinol]
Kd [1, 6]: 2.5 µM

oligo28/laccase adduct: oligo 28 (SEQ ID NO:1) attached via 5′ hydrazide to periodate-treated Trametes versicolor laccase (CGCTGTGATGGTGGCCCC; Laccase enzyme attached through a 5' hydrazide, further chemistry not given here)
increase in current, complementary vs non-complementary surface oligonucleotide [4]: 3.5 fold

B1: Oligo52 + Oligo54: target oligonucleotide 52 (SEQ ID NO:4) prehybridized to oligonucleotide 54 (SEQ ID NO:5) with 5′ Alexa Fluor 546 tag (nucleic acid)
chain 1: GGGGCCACCATCACAGCGTTTTTTTTTTGGGGCCACCATCACAGCG
chain 2: CGCTGTGATGGTGGCCCC
modifications: Second strand carries a 5' Alexa Fluor 546 label, further chemistry not given here; the letters are possibly those of the target site
Relative signal amplitude ([5]; 1 nM): 39 and 50 | Relative signal amplitude ([5]; 10 nM): 940 and 990 | Relative signal amplitude ([5]; 100 nM): 1140 and 1690
